According to patent US10150737B2, “Compounds for controlling arthropods” (priority 2013, dated 2018):

Legend:
[1] = logP determination by HPLC on a reversed-phase column (C18); type: physicochemical; conditions: for log P: HPLC-MS, reversed-phase column (C18), Table I-T3
Meloidogyne incognita = Meloidogyne incognita test; type: in vivo; conditions: application rate 20 ppm; lettuce; after 14 days
Protocol: Solvent: 125.0 parts by weight of acetone
To produce an appropriate active ingredient formulation, 1 part by weight of active ingredient is mixed with the stated amount of solvent and the concentrate is diluted with water to the desired concentration.
Vessels are filled with sand, active ingredient solution, an egg/larvae suspension of the southern root-knot nematode (Meloidogyne incognita) and lettuce seeds. The lettuce seeds germinate and the plants develop. The galls develop on the roots.
After 14 days, the nematicidal efficacy in % is determined by the formation of galls. 100% means that no galls were found; 0% means that the number of galls on the treated plants corresponds to the untreated control.

Myzus persicae = Myzus persicae - spray test; type: in vivo; conditions: Chinese cabbage leaf discs, after 6 days
Outline: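 Mortality of the green peach aphid, as % killed, was read 6 days after spraying infested Brassica pekinensis leaf discs. Compound formulated in acetone/dimethylformamide and made up with emulsifier-containing (1000 ppm) water.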

Phaedon cochleariae = Phaedon cochleariae - spray test; type: in vivo; conditions: application rate 500 g/ha; larvae on Chinese cabbage leaf discs; after 7 days
Outline: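 Mortality of mustard beetle larvae was scored as % at day 7 on Brassica pekinensis leaf discs. Discs had been treated by spraying at the desired concentration, using an acetone/dimethylformamide solution diluted in water with 1000 ppm alkylaryl polyglycol ether, and dried before larvae were added.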

Spodoptera frugiperda = Spodoptera frugiperda - spray test; type: in vivo; conditions: application rate 500 g/ha; caterpillars on maize leaf discs; after 7 days
Outline: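 Percent mortality of Spodoptera frugiperda caterpillars scored 7 days after placing them on dried maize leaf discs sprayed at the desired concentration. Spray formulation: compound dissolved in acetone/dimethylformamide, made up with water containing 1000 ppm emulsifier.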

Tetranychus urticae = Tetranychus urticae - spray test, OP-resistant; type: in vivo; conditions: application rate 500 g/ha; bean leaf discs; after 6 days
Outline: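 Mortality (%) read on day 6 after spraying Phaseolus vulgaris leaf discs carrying all mite stages with formulations at the desired concentration. Formulation: active ingredient in acetone plus dimethylformamide, made up with emulsifier-containing water (1000 ppm alkylaryl polyglycol ether).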

Rhipicephalus sanguineus = Rhipicephalus sanguineus - in vitro contact tests with adult brown dog ticks; type: in vivo; conditions: application rate 5 μg/cm2; after 48 h; ticks dead or moribund
Outline: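 Efficacy, scored after 48 h, is the % of adult ticks dead or moribund, i.e. unable to climb away on a 45-50° C hotplate within 5 min. Tubes held 5-10 ticks in the dark at room temperature, on an acetone-applied coating of 5 μg/cm^2 (900 ppm solution).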

Ctenocephalides felis = Ctenocephalides felis - in vitro contact tests with adult cat fleas; type: in vivo; conditions: application rate 5 μg/cm2 (=500 g/ha); after 48 h; fleas dead or moribund
Outline: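 Efficacy, as percentage of fleas dead or moribund, was scored at 48 h by knocking fleas to the tube base. Exposure was by contact with a dried acetone film of compound at 5 μg/cm^2 area dose; 5–10 adults per tube, room temperature, ambient humidity.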

Amblyomma hebraeum = experiment: Amblyomma hebaraeum test (tick nymphs, immersion); type: in vivo; conditions: application rate 100 ppm; tick nymphs immersed one minute; after 42 days
Outline: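 Mortality (%) is read 42 days post-treatment, where 0% means no ticks and 100% all ticks killed. Nymphs were dipped for 1 min into the test dilution (DMSO stock diluted with water) and afterwards stored on filter paper under controlled climate.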

Boophilus microplus = Boophilus microplus - injection test; type: in vivo; conditions: Rhipicephalus microplus, 168 h; application rate 20 μg/animal; injection into engorged adult female ticks; after 7 days; read-out: efficacy (laying of fertile eggs)
Outline: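 Five engorged adult female cattle ticks each received a 1 μl abdominal injection of compound solution in dimethyl sulphoxide. Fertile egg laying was assessed at 7 days, with doubtful eggs incubated about 42 days until hatch. 0% efficacy means all eggs fertile.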

[2] = tested on: Boophilus microplus Parkhurst strain, SP-resistant; experiment: Boophilus microplus - dip test; type: in vivo; conditions: application rate 100 ppm; dip of engorged adult female ticks; after 7 days
Outline: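 Compound dissolved in DMSO, diluted with water, and used to fully wet groups of 8-10 engorged female cattle ticks (SP-resistant Parkhurst strain). Fertile egg laying assessed at 7 days, doubtful eggs held ~42 days until hatch; 0% means all eggs fertile.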

Musca domestica = Musca domestica test; type: in vivo; conditions: application rate 100 ppm; adult houseflies; after 2 days
Outline: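 First, 10 mg compound was taken up in 0.5 ml DMSO and then brought with water to the required concentration. This was applied with sugar solution to a sponge in vessels holding 10 adult flies; kill was assessed after 2 days.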

[3] = tested on: Anopheles gamhiae strain RSPH (homozygot kdr); experiment: Anopheles test (ANPHGB surface treatment); type: in vivo; conditions: read-out: efficacy (mortality)
Protocol: (§1) Solvent: acetone+2000 ppm rapeseed oil methyl ester (RME)
(§2) To produce an appropriate active ingredient formulation, the active ingredient is dissolved in the solvent (2 mg/ml). The active ingredient formulation is pipetted onto a glazed tile and, after it has dried off, adult mosquitoes of the species Anopheles gamhiae strain RSPH (homozygot kdr) are placed onto the treated tile. The exposure time is 30 minutes.
(§3) 24 hours after contact with the treated surface, mortality in % is determined. 100% means that all mosquitoes have been killed; 0% means that none of the mosquitoes have been killed.

[4] = tested on: Anopheles funestus strain FUMOZ-R; experiment: Anopheles test (ANPHFU surface treatment); type: in vivo; conditions: read-out: efficacy (mortality)
Protocol: as §1
as §2, with “funestus” for “gamhiae”, “FUMOZ-R (Hunt et al., Med Vet Entomol. 2005 September; 19 (3):271-5)” for “RSPH (homozygot kdr)”
as §3

[5] = tested on: Aedes aegypti strain MONHEIM; experiment: Aedes test (AEDSAE surface treatment); type: in vivo; conditions: read-out: efficacy (mortality)
Protocol: as §1
as §2, with “Aedes aegypti” for “Anopheles gamhiae”, “MONHEIM” for “RSPH (homozygot kdr)”
as §3

For `N#CC1(NC(=O)c2cc(-c3cnn(-c4c(Cl)cc(C(F)(F)F)c(F)c4Cl)c3)ccc2Cl)CC1` [I-T3-185], the “log P” value [1] was 3.6, the “nematicidal efficacy (formation of galls)” value (Meloidogyne incognita) was 90% and the efficacy (Myzus persicae; application rate 500 g/ha) was 100%. It also gave an efficacy (Phaedon cochleariae) of 100%, an efficacy (Spodoptera frugiperda) of 100% and an efficacy (Tetranychus urticae) of 100%.

With `O=C(NC1CC1)c1cc(-c2cnn(-c3c(Cl)cc(C(F)(F)F)c(F)c3Cl)c2)ccc1Cl` [I-T3-184] the “log P” value [1] was 3.6, the “nematicidal efficacy (formation of galls)” value (Meloidogyne incognita) was 90% and the efficacy (Myzus persicae; application rate 100 g/ha) was 100%. For the same compound, the efficacy (Phaedon cochleariae) was 100%, the efficacy (Spodoptera frugiperda) was 100% and the efficacy (Tetranychus urticae) was 100%.

For `Cc1cc(C(F)(C(F)(F)F)C(F)(F)F)cc(C)c1-c1cc(-c2ccc(Cl)c(C(=O)NC3CC3)c2)on1` [I-T22-1, 2-chloro-N-cyclopropyl-5-[3-[2,6-dimethyl-4-[1,2,2,2-tetrafluoro-1-(trifluoromethyl)ethyl]phenyl]isoxazol-5-yl]benzamide], the logP ([1]; HPLC, C18 reversed phase, acetonitrile/water with formic acid, EEC Directive 79/831 Annex V.A8) was 4.8, the efficacy (Rhipicephalus sanguineus) was 100% and the efficacy (Ctenocephalides felis) was 100%. The “efficacy (kill)” value (Amblyomma hebraeum) was 100%, the pest or weed control at 0.02 mg (Boophilus microplus) was 100% and the “efficacy (laying of fertile eggs)” value [2] was 100%. For the same compound, the “efficacy (kill)” value (Musca domestica) was 100%, the efficacy (Myzus persicae; application rate 100 g/ha) was 100% and the mortality at 100 mg/m2 [3] was 90 to 100%. It also gave a mortality at 20 mg/m2 [4] of 90 to 100%, a mortality at 100 mg/m2 [4] of 90 to 100% and a mortality at 20 mg/m2 [5] of 90 to 100%. For the same compound, the mortality at 100 mg/m2 [5] was 90 to 100%.
